Experimental findings from article PMC3365014, “Specific Recognition of p53 Tetramers by Peptides Derived from p53 Interacting Proteins” (PLoS ONE, 2012) are described below.

This assay concerns FlAsH-labeled full-length p53 (M133L/V203A/N239Y/N268D). Nature of the assay: Fluorescence-monitored analytical ultracentrifugation sedimentation velocity. In kind it is binding. Particulars: 25–50 nM FlAsH-p53, peptide up to 500 µM or solubility limit; 25 mM NaPi pH 7.2, 150 mM NaCl, 10% glycerol, 10°C.

Entries after “also recorded” stand apart in the source; their conditions may differ.

Protocol: We tested whether the peptides that bind tetrameric p53CTD can bind specifically to tetrameric p53 in a mixture of the different oligomers. Testing the specificity of the peptides for tetrameric p53 must be performed at very low p53 concentrations (<100 nM), where a significant population of dimers is present in addition to the tetramers [21]. Therefore, we used fluorescence-monitored analytical ultracentrifugation sedimentation velocity experiments using FlAsH-labeled full-length p53. The fluorescent label on p53 enables working at nanomolar protein concentrations and allows for specific detection of the protein without interference from any other molecule in the solution.
We incubated FlAsH-p53 with different concentrations of the peptides and measured the sedimentation profiles of the protein (Figure 7). […] Sedimentation coefficients of∼2 S correspond to dimers and∼3 S correspond to tetramers. Presumably, sedimentation coefficients of up to∼4 S correspond to p53 tetramers bound to one or more peptide molecules. […] Most likely higher sedimentation coefficients (>4 S) correspond to higher-order oligomers of p53.
C-terminally FlAsH-tagged (CCPGCC) p53 was expressed and reacted with FlAsH-EDT2 as described [24]. This introduces a specific fluorescent label at the carboxy terminus of p53. The protein was dialyzed against 25 mM NaPi pH = 7.2, 150 mM NaCl, 14.2 mM β-mercaptoethanol, 0.2 mg/ml BSA and 10% glycerol. […] The measurements were performed in a Beckman-Coulter Optima XL-I ultracentrifuge with an Aviv fluorescence detection system [29] in SedVel60K-FDS fluorescence velocity cells. The samples were equilibrated in the cells at 10°C for 3 hours before centrifugation. The AUC run was performed as described [23], [48] and analyzed using SedFit software [56].

On to `CSCC[C@H](NC(=O)CNC(=O)[C@@H]1CCCN1C(=O)[C@H](CCC(N)=O)NC(=O)[C@H](CC(C)C)NC(=O)[C@@H](N)[C@@H](C)O)C(=O)N[C@@H](CCCNC(=N)N)C(=O)N[C@H](C(=O)N[C@@H](CCCNC(=N)N)C(=O)N[C@@H](CCSC)C(=O)N[C@@H](CC(C)C)C(=O)N[C@@H](CC(=O)O)C(=O)N[C@@H](CC(=O)O)C(=O)N[C@@H](Cc1ccc(O)cc1)C(=O)N[C@@H](CCC(=O)O)C(N)=O)C(C)C` [Cul7(376–390)], for which the AUC effect result was “a specific shift of the tetramer peak was observed but at much higher concentrations, and no high-order oligomers were formed; also recorded: causes a shift of the tetramer peak at very high peptide concentrations; also recorded: Tetramer shift”.
As to `CC[C@H](C)[C@H](NC(=O)[C@H](CCC(=O)O)NC(=O)[C@H](CCC(=O)O)NC(=O)[C@H](Cc1ccc(O)cc1)NC(=O)[C@H](CC(=O)O)NC(=O)[C@H](CC(=O)O)NC(=O)[C@H](CC(C)C)NC(=O)[C@H](CCSC)NC(=O)[C@H](CCCNC(=N)N)NC(=O)[C@@H](NC(=O)[C@H](CCCNC(=N)N)NC(=O)[C@H](CCSC)NC(=O)CN)C(C)C)C(=O)N[C@@H](CO)C(=O)N[C@@H](C)C(N)=O` [PARC(386–400)], the AUC effect entry was “a specific shift of the tetramer peak was observed but at much higher concentrations, and no high-order oligomers were formed; also recorded: Tetramer shift”.
